According to paper PMC6369240, “Biological evaluation and structure activity relationship of 9-methyl-1-phenyl-9H-pyrido[3,4-b]indole derivatives as anti-leishmanial agents” (Bioorganic Chemistry, 2019):

Assays:
[1] = tested on: L. donovani LdBOB intracellular amastigotes in PMA differentiated THP-1 cells; assay: Intra macrophage L. donovani (amastigote) assay in THP-1 cells; type: cell-based, Leishmania donovani; conditions: for S.I (CC50/IC50), L. donovani intracellular amastigote: HeLa CC50 / L. donovani intracellular amastigote EC50; for EC50: THP-1 macrophages, 72 h, microscopy readout
Description: Although, axenic amastigotes assay most commonly used to screen new leishmanial agents are different from intracellular amastigotes in terms of protein expression and drug susceptibility. […] THP-1 (human monocytic leukemia) cells were a kind gift from Dr Susan Wylie (Dundee) and maintained in minimal essential medium plus 10% (vol/vol) FBS. […] Briefly, THP-1 cells (20,000 per well, 200 μL) were plated into 96 well plates in presence of 10 nM PMA and incubated at 37 °C in 5% CO2 atmosphere for 75 h. […] Any remaining extracellular amastigotes were removed and the adhered cells were washed with the same supplemented PBS solution as above. Pre-aliquoted compounds in a serial dilution were added from another plate, such that the total well volume was 200 μL and incubated for further 72 h. Cells were fixed with 100% methanol, stained with Giemsa and examined microscopically.

[2] = HeLa cell cytotoxicity, Alamar blue assay; type: cell-based; conditions: human; HeLa cells, ~65 h incubation plus 5 h Alamar Blue
Description: HeLa cell cytotoxicity studies were carried out as described previously. Briefly, the cells were cultured in DMEM supplemented with 10% fetal calf serum and 2 mM L-glutamine. Cells were plated at initial cell concentration of 2 × 10^4 cells/well and incubated with the compounds for ∼65 h prior to addition of Alamar Blue solution for further 5 h.

[3] = tested on: L. donovani LdBOB axenic amastigotes; assay: L. donovani axenic amastigote assay (Alamar blue); type: cell-based, Leishmania donovani; conditions: for EC50: 72 h, Alamar blue; for S.I (CC50/IC50), L. donovani axenic amastigote: HeLa CC50 / L. donovani axenic amastigote EC50
Description: (§1) L. donovaniLdBOB axenic amastigotes or L. infantum JPCM5 MCAN/ES/98/LLM-87 were cultured at 37 °C in modified Eagle’s medium (HOMEM; L. infantum) and axenic amastigotes were incubated for 72 h with compounds, followed by Alamar blue-based assay as previously described.

[4] = tested on: L. infantum JPCM5 MCAN/ES/98/LLM-87 promastigotes; assay: L. infantum promastigote assay (Alamar blue); type: cell-based, Leishmania infantum; conditions: for S.I (CC50/IC50), L. infantum promastigote: HeLa CC50 / L. infantum promastigote EC50; for EC50: Leishmania infantum, 72 h, Alamar blue
Description: (§2) Anti-leishmanial activity of these analogues was determined by evaluating their inhibition activity against both promastigote, amastigote forms of Leishmania infantum and Leishmania donovani strains. […] Anti-leishmanial drugs miltefosine and pentamidine were used as standards for comparison purpose.
Anti-promastigote activity of these reported β-carboline derivatives was determined by Alamar blue assay method.
(§3) L. donovanipromastigotes were cultured at 37 °C in M199 medium supplemented with 10% heat-inactivated fetal calf serum. L. infantum JPCM5 MCAN/ES/98/LLM-87 promastigotes were cultured at 26 °C in modified Eagle’s medium (HOMEM). Parasites were incubated with serial dilutions of compounds for 72 h, followed by Alamar blue-based assay as previously described.

[5] = tested on: L. donovani promastigotes; assay: L. donovani promastigote assay (Alamar blue); type: cell-based, Leishmania donovani; conditions: for S.I (CC50/IC50), L. donovani promastigote: HeLa CC50 / L. donovani promastigote EC50; for EC50: Leishmania donovani, 72 h, Alamar blue
Description: as §2
L. donovani promastigote inhibition potency of these reported β-carboline derivatives was determined by Alamar blue assay method.
as §3

[6] = tested on: L. infantum JPCM5 MCAN/ES/98/LLM-87 axenic amastigotes; assay: L. infantum axenic amastigote assay (Alamar blue); type: cell-based, Leishmania infantum; conditions: for S.I (CC50/IC50), L. infantum axenic amastigote: HeLa CC50 / L. infantum axenic amastigote EC50; for EC50: Leishmania infantum, 72 h, Alamar blue
Description: Alamar blue assay method was used to determine inhibition potential of these β-carboline derivatives against (human life stage forms) axenic amastigotes.
as §1

[7] = Leishmania donovani, THP-1, 72 h

Compound	S.I (CC50/IC50), L. donovani intracellular amastigote [1]	EC50 [1, 7] [µM]	CC50 [2] [µM]	EC50 [3] [µM]	S.I (CC50/IC50), L. donovani axenic amastigote [3]	EC50 ([3]; Leishmania donovani) [µM]	S.I (CC50/IC50), L. infantum promastigote [4]	EC50 [4] [µM]	melting point [°C]	S.I (CC50/IC50), L. donovani promastigote [5]	EC50 [5] [µM]	EC50 [1] [µM]	S.I (CC50/IC50), L. infantum axenic amastigote [6]	EC50 [6] [µM]
Cn1c2ccccc2c2cc(C(=O)N3CCN(Cc4ccccc4)CC3)nc(-c3ccccc3)c21 [7n, (4-benzylpiperazin-1-yl)(9-methyl-1-phenyl-9H-pyrido[3,4-b]indol-3-yl)methanone]	89.3	5.6 ± 0.9	> 500	3.5 ± 0.2	142.9	2.2	>24.5	20.4 ± 1.4	158 to 160	>109.4	4.57 ± 0.24			
COc1cccc(N2CCN(C(=O)c3cc4c5ccccc5n(C)c4c(-c4ccccc4)n3)CC2)c1 [7e, (4-(3-methoxyphenyl)piperazin-1-yl)(9-methyl-1-phenyl-9H-pyrido[3,4-b]indol-3-yl)methanone]			> 500				>6.9	72.4 ± 6.7	196 to 198	>17.5	28.5 ± 1.8			
Cn1c2ccccc2c2cc(C(=O)N3CCN(c4ccccc4Cl)CC3)nc(-c3ccccc3)c21 [7i, (4-(2-chlorophenyl)piperazin-1-yl)(9-methyl-1-phenyl-9H-pyrido[3,4-b]indol-3-yl)methanone]	22.7	22 ± 2.1	> 500		25.8	19.4 ± 1.2	>23.0	21.7 ± 0.6	152 to 154	>32.9	15.2 ± 0.85			
Cc1ccccc1N1CCN(C(=O)c2cc3c4ccccc4n(C)c3c(-c3ccccc3)n2)CC1 [7c, (9-methyl-1-phenyl-9H-pyrido[3,4-b]indol-3-yl)(4-o-tolylpiperazin-1-yl)methanone]	53.2	7.8	> 500		94.3	5.3 ± 0.4	>134.0	3.73 ± 0.28	148 to 150	>52.9	9.45 ± 0.72	9.4 ± 1.3	>192.3	2.6 ± 0.2
Cn1c2ccccc2c2cc(C(=O)N3CCN(c4ccccc4)CC3)nc(-c3ccccc3)c21 [7a, (9-methyl-1-phenyl-9H-pyrido[3,4-b]indol-3-yl)(4-phenylpiperazin-1-yl)methanone]	37.0	13.5 ± 2	> 500		50.0	10 ± 0.3	>52.9	9.45 ± 0.82	232 to 234	>42.0	11.9 ± 1.2		>111.1	4.5 ± 0.3
Cn1c2ccccc2c2cc(C(=O)N3CCN(c4ccccc4F)CC3)nc(-c3ccccc3)c21 [7l, (4-(2-fluorophenyl)piperazin-1-yl)(9-methyl-1-phenyl-9H-pyrido[3,4-b]indol-3-yl)methanone]			> 500				>7.7	64.9 ± 5.7	168 to 170	>5.8	85.9 ± 7.3			
Cn1c2ccccc2c2cc(C(=O)N3CCN(c4ccncc4)CC3)nc(-c3ccccc3)c21 [7o, (9-methyl-1-phenyl-9H-pyrido[3,4-b]indol-3-yl)(4-(pyridin-4-yl)piperazin-1-yl)methanone]	4.1	7.9	29.7 ± 1.5		2.1	13.9 ± 0.4	0.48		198 to 200	1.52	19.5 ± 2.8	7.2 ± 0.5		
Cn1c2ccccc2c2cc(C(=O)N3CCN(c4ccc(Cl)cc4)CC3)nc(-c3ccccc3)c21 [7g, (4-(4-chlorophenyl)piperazin-1-yl)(9-methyl-1-phenyl-9H-pyrido[3,4-b]indol-3-yl)methanone]	79.4	6.3 ± 0.3	> 500		131.6	3.8 ± 0.5	>340.1	1.47 ± 0.32	160 to 162	>99.6	5.02 ± 0.36		>263.2	1.9 ± 0.2
Cn1c2ccccc2c2cc(C(=O)N3CCN(c4ccccn4)CC3)nc(-c3ccccc3)c21 [7p, (9-methyl-1-phenyl-9H-pyrido[3,4-b]indol-3-yl)(4-(pyridin-2-yl)piperazin-1-yl)methanone]	34.6	9.4	273 ± 21.6		22.2	12.3 ± 0.6	5.97	45.7 ± 3.3	174 to 176		8.5 ± 0.75	7.9 ± 0.3		
Cc1ccc(N2CCN(C(=O)c3cc4c5ccccc5n(C)c4c(-c4ccccc4)n3)CC2)cc1 [7b, (9-methyl-1-phenyl-9H-pyrido[3,4-b]indol-3-yl)(4-p-tolylpiperazin-1-yl)methanone]	63.3	7.2	> 500		86.2	5.8 ± 0.3	>20.5	24.3 ± 1.3	188 to 190	>35.2	14.2 ± 1.2	7.9 ± 0.4		
Cn1c2ccccc2c2cc(C(=O)N3CCN(c4cccc(Cl)c4Cl)CC3)nc(-c3ccccc3)c21 [7m, (4-(2,3-dichlorophenyl)piperazin-1-yl)(9-methyl-1-phenyl-9H-pyrido[3,4-b]indol-3-yl)methanone]			> 500				>5.3	93 ± 7.5	166 to 168	>4.3	118 ± 6.4			
N=C(N)c1ccc(OCCCCCOc2ccc(C(=N)N)cc2)cc1 [Pentamidine, reference compound]		23.7 ± 1.8				1.6 ± 0.1		8.31 ± 0.18			6.4 ± 0.11			2.7 ± 0.4
Cn1c2ccccc2c2cc(C(=O)N3CCN(c4ccc([N+](=O)[O-])cc4)CC3)nc(-c3ccccc3)c21 [7j, (9-methyl-1-phenyl-9H-pyrido[3,4-b]indol-3-yl)(4-(4-nitrophenyl)piperazin-1-yl)methanone]	32.5	15.4 ± 0.9	> 500		66.7	7.5 ± 0.4	>25.3	19.7 ± 1.7	200 to 202	>38.2	13.1 ± 1.5		>34.2	14.6 ± 2.9
Cn1c2ccccc2c2cc(C(=O)N3CCN(c4cccc(Cl)c4)CC3)nc(-c3ccccc3)c21 [7h, (4-(3-chlorophenyl)piperazin-1-yl)(9-methyl-1-phenyl-9H-pyrido[3,4-b]indol-3-yl)methanone]	64.1	7.9	> 500	2.2 ± 0.1	227.3	3.5	>9.8		130 to 132	>125	4 ± 0.25	7.8 ± 1.3		
